Experimental data: patent US20220389477A1, “METHOD FOR EVALUATING ANTIBIOTIC SUSCEPTIBILITY” (Vrije Universiteit Brussel, priority 2019, published 2022)
Values after ≈ are worked out from the molar mass of the structure shown.

Columns and labels:
Type in all cases: cell-based
[1] = system: Klebsiella pneumonia culture; experiment: Optical third-derivative MIC method, culture in broth; conditions: for MIC: Klebsiella pneumoniae
Excerpt: The method of FIG. 1 starts at a time equal to zero, t0 (1). Preferably, said t0 is the moment a pure bacteria culture is finished being prepared. Alternatively, said t0 is the moment all wells contain both said bacteria culture and said antimicrobial drug. After the starting of the experiment each well is periodically illuminated with a light source and the intensity of the transmitted light is detected with a photodetector (2). Preferably, each well is illuminated and the intensity of the transmitted light is detected every hour (2). More preferably, each well is illuminated and the intensity of the transmitted light is detected every 5 to 15 min. After a predetermined time length, preferably after 4 hours, a first, a second and a third derivative of said measured intensity is calculated (3) in a first and a second time frame for each well. Preferably, said second time frame is the last measured time frame after the test has been running for said predetermined time length, and said first time frame is the time frame preceding the second time frame. More preferably, said first time frame is between two and three hours and said second time frame is between three and four hours. After the calculation of said derivatives, said first derivative in said second time frame of said reference well is compared to a growth speed threshold value (4). Preferably, said growth speed threshold value is 0.166 (4). If said first derivative in said second time frame of said reference well is larger than or equal to said growth speed threshold value said bacteria culture is classified as Type I (4). If said first derivative in said second time frame of said reference well is smaller than said growth speed threshold value said bacteria culture is classified as Type II (4). Subsequently, independent of the classification of the bacteria culture according to the two types, the method comprises the following steps which are performed for each well or for all wells except said reference well. Both said first and said second time frames are evaluated to see if there is an inflection point present in the second derivative in said first and/or said second time frame (5).
If said first and/or said second time frame comprise said inflection point than said third derivative in said first time frame is compared to said third derivative in said second time frame (6). If said third derivative in said first time frame is larger than said third derivative in said second time frame, then said first time frame and said second time frame are selected as a first and second time frame to be used in a minimal inhibitory concentration determination method (10). If said third derivative in said first time frame is not larger than said third derivative in said second time frame, then said well is illuminated again after a certain time period, preferably an hour, more preferably 5 to 15 min after said predetermined time length said, with a light source and the intensity of the transmitted light is detected with a photodetector forming a new time frame subsequent to said second time frame (7). A third derivative, and possibly also a first and/or a second derivative, is calculated in said new time frame (7). Further, in step (7) a new first time frame is put equal to said second time frame and a new second time frame to equal to said new time frame. Subsequently, said third derivative in said new first time frame is compared to said third derivative in said new second time frame (8). If said derivative in said new first time frame is larger than said third derivative in said new second time frame, then said new first time frame and said new second time frame are selected as a first and second time frame to be used in a minimal inhibitory concentration determination method (10). […]

[2] = system: Klebsiella pneumonia culture; experiment: E-test; conditions: Klebsiella pneumoniae
[3] = system: Klebsiella pneumonia culture; experiment: Broth microdilution (BMD); conditions: Klebsiella pneumoniae

C[C@@H](O)[C@H]1C(=O)N2C(C(=O)O)=C(SCCN=CN)C[C@H]12 [imipenem]
MIC ([1]; 4 h, KP/38.3002, FIG. 5C, Table 5, 4 h-5 h, read-out: MIC (25%) T2): 16 µg/mL (≈ 53.4 µM)
MIC ([1]; 4 h, KP/38.3002, FIG. 5C, Table 5, 4 h-5 h, read-out: MIC (40%) T2): 8 µg/mL (≈ 26.7 µM)
MIC ([1]; 4 h, KP/38.3002, FIG. 5C, Table 5, 4 h-5 h, read-out: MIC (60%) T2): 8 µg/mL (≈ 26.7 µM)
MIC ([1]; 4 h, KP/38.3002, FIG. 5C, Table 5, 4 h-5 h, read-out: MIC (75%) T2): 8 µg/mL (≈ 26.7 µM)
MIC ([1]; 4 h, KP/153.4346, 4 h-5 h, read-out: MIC (25%) T2): > 256 µg/mL
MIC ([1]; 4 h, KP/153.4346, 4 h-5 h, read-out: MIC (40%) T2): > 256 µg/mL
MIC ([1]; 4 h, KP/153.4346, 4 h-5 h, read-out: MIC (60%) T2): 16 µg/mL (≈ 53.4 µM)
MIC ([1]; 4 h, KP/153.4346, 4 h-5 h, read-out: MIC (75%) T2): 16 µg/mL (≈ 53.4 µM)
MIC ([1]; 4 h, MP/072.3489, 4 h-5 h, read-out: MIC (25%) T2): 16 µg/mL (≈ 53.4 µM)
MIC ([1]; 4 h, MP/072.3489, 4 h-5 h, read-out: MIC (40%) T2): 8 µg/mL (≈ 26.7 µM)
MIC ([1]; 4 h, MP/072.3489, 4 h-5 h, read-out: MIC (60%) T2): 8 µg/mL (≈ 26.7 µM)
MIC ([1]; 4 h, MP/072.3489, 4 h-5 h, read-out: MIC (75%) T2): 8 µg/mL (≈ 26.7 µM)
MIC ([1]; 5 h, KP/38.3002, FIG. 5H, both repetitions, read-out: MIC value determined by the method): 16 µg/mL (≈ 53.4 µM)
MIC ([1]; KP/38.3002, FIG. 5C, overall conclusion, read-out: MIC value determined by the method): 16 µg/mL (≈ 53.4 µM)
MIC ([1]; KP/38.3002, FIG. 5H repetition, Table 10, 3 h-4 h, read-out: MIC (25%) T1): 0.5 µg/mL (≈ 1.67 µM)
MIC ([1]; KP/38.3002, FIG. 5H repetition, Table 10, 3 h-4 h, read-out: MIC (40%) T1): 0.5 µg/mL (≈ 1.67 µM)
MIC ([1]; KP/38.3002, FIG. 5H repetition, Table 10, 3 h-4 h, read-out: MIC (60%) T1): 0.5 µg/mL (≈ 1.67 µM)
MIC ([1]; KP/38.3002, FIG. 5H repetition, Table 10, 3 h-4 h, read-out: MIC (75%) T1): 0.5 µg/mL (≈ 1.67 µM)
MIC ([1]; KP/38.3002, FIG. 5H repetition, Table 10, 4 h-5 h, read-out: MIC (25%) T2): 16 µg/mL (≈ 53.4 µM)
MIC ([1]; KP/38.3002, FIG. 5H repetition, Table 10, 4 h-5 h, read-out: MIC (40%) T2): 16 µg/mL (≈ 53.4 µM)
MIC ([1]; KP/38.3002, FIG. 5H repetition, Table 10, 4 h-5 h, read-out: MIC (60%) T2): 16 µg/mL (≈ 53.4 µM)
MIC ([1]; KP/38.3002, FIG. 5H repetition, Table 10, 4 h-5 h, read-out: MIC (75%) T2): 8 µg/mL (≈ 26.7 µM)
MIC ([1]; KP/38.3002, FIG. 5H repetition, Table 11, 3 h-4 h, read-out: MIC (25%) T1): 16 µg/mL (≈ 53.4 µM)
MIC ([1]; KP/38.3002, FIG. 5H repetition, Table 11, 3 h-4 h, read-out: MIC (40%) T1): 0.25 µg/mL (≈ 0.835 µM)
MIC ([1]; KP/38.3002, FIG. 5H repetition, Table 11, 3 h-4 h, read-out: MIC (60%) T1): 0.25 µg/mL (≈ 0.835 µM)
MIC ([1]; KP/38.3002, FIG. 5H repetition, Table 11, 3 h-4 h, read-out: MIC (75%) T1): 0.25 µg/mL (≈ 0.835 µM)
MIC ([1]; KP/38.3002, FIG. 5H repetition, Table 11, 4 h-5 h, read-out: MIC (25%) T2): 16 µg/mL (≈ 53.4 µM)
MIC ([1]; KP/38.3002, FIG. 5H repetition, Table 11, 4 h-5 h, read-out: MIC (40%) T2): 8 µg/mL (≈ 26.7 µM)
MIC ([1]; KP/38.3002, FIG. 5H repetition, Table 11, 4 h-5 h, read-out: MIC (60%) T2): 8 µg/mL (≈ 26.7 µM)
MIC ([1]; KP/38.3002, FIG. 5H repetition, Table 11, 4 h-5 h, read-out: MIC (75%) T2): 8 µg/mL (≈ 26.7 µM)
MIC ([1]; KP/153.4346, FIG. 5G, overall conclusion, read-out: MIC value determined by the method): > 256 µg/mL
MIC ([1]; MP/072.3489, FIG. 5B, overall conclusion, read-out: MIC value determined by the method): 16 µg/mL (≈ 53.4 µM)
HR? at MIC (25%) ([1]; MP/072.3489, ratio MIC T2/T1): yes (If the ratio of the MIC value in the second time frame over the MIC value in the first time frame is higher than or equal to 8 then the ratio is labelled to be heteroresistant)
HR? at MIC (40%) ([1]; MP/072.3489, ratio MIC T2/T1): yes (If the ratio of the MIC value in the second time frame over the MIC value in the first time frame is higher than or equal to 8 then the ratio is labelled to be heteroresistant)
HR? at MIC (60%) ([1]; MP/072.3489, ratio MIC T2/T1): yes (If the ratio of the MIC value in the second time frame over the MIC value in the first time frame is higher than or equal to 8 then the ratio is labelled to be heteroresistant)
HR? at MIC (75%) ([1]; MP/072.3489, ratio MIC T2/T1): yes (If the ratio of the MIC value in the second time frame over the MIC value in the first time frame is higher than or equal to 8 then the ratio is labelled to be heteroresistant)
MIC ([2]; culture KP/38.3002): 16 µg/mL (≈ 53.4 µM)
MIC ([2]; culture KP/153.4346): > 32 µg/mL
MIC ([2]; culture MP/072.3489): 16 µg/mL (≈ 53.4 µM)
MIC ([3]; culture KP/38.3002): 16 µg/mL (≈ 53.4 µM)
MIC ([3]; culture KP/153.4346): 16 µg/mL (≈ 53.4 µM)
MIC ([3]; culture MP/072.3489): 32 µg/mL (≈ 107 µM)
